This is an account of results in EP4741379A1, “CLASS OF PROGRAMMED CELL DEATH INHIBITORS, PREPARATION METHOD THEREFOR AND USE THEREOF” (SHANGHAI INSTITUTE OF ORGANIC CHEMISTRY, CHINESE ACADEMY OF …, priority 2023, dated 2025).

Read-outs that look alike come from different tables or passages of the source.

The test system of series [1] is FADD-deficient Jurkat cells. Nature of the series: TNF-induced programmed necrosis of FADD-deficient Jurkat cells (Cell Titer-Glo viability). Format: cell-based, human. As to conditions: for EC50: Homo sapiens, Jurkat.
Series [2] deals with T1, RIPK1 (1-330) protein (Homo sapiens, UniProt Q13546).
T1 construct: test effects of the compound QY-18-26 on kinase activity of RIPK1 (1-330) protein
T1 sequence (Q13546 1-330): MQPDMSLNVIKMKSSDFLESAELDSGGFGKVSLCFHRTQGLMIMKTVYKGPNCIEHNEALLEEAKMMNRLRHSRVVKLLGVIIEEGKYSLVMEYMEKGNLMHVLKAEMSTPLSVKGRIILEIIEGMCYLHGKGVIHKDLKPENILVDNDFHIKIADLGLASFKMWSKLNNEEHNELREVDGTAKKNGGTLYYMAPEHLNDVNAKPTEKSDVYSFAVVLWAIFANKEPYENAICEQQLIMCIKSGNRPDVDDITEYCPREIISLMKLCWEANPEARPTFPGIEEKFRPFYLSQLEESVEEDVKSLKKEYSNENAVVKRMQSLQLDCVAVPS
Nature of the series: RIPK1 kinase activity (ADP-Glo). In kind it is biochemical. The following applies: RIPK1 (1-330) 2 µM, 37°C, 2 hours; read-out: effective half-maximal inhibitory concentration. As to the method:
A known clinical RIPK1 inhibitor SAR443122 was used as a control.
Method: Into a 384-well plate, RIPK1 (1-330) protein with a final concentration of 2 µM and ATP with a corresponding concentration (in 1X kinase buffer) with a final concentration of 5 µL were added. At least 3 replicates were set for each group and reacted at 37°C for 2 hours. 5 µL of ADP-Glo reagent was added to stop the kinase reaction and remove any remaining ATP in the reaction system. The plate was incubated at room temperature for 40 minutes, added with 10 µL of Kinase Detection Reagent, which was used to convert ADP to ATP and introduce luciferase and luciferin to detect ATP in the system, and reacted at room temperature for 1 hour. Luminescence was measured using a 7500 Fast Real-Time PCR System. IC50 values of compounds in inhibiting the kinase reaction were calculated using Prism GraphPad statistical software.
For orientation: ADP-Glo turns the ADP formed in a reaction into a luminescent signal.

Series [3] has as its system L929 cells. Put plainly: TNF-induced programmed necrosis of L929 cells (Cell Titer-Glo viability). In kind it is cell-based, mouse. The following applies: Mus musculus, L929. (In ATP-based viability assays light output follows the ATP content of the culture.)
Series [4] concerns TNFα-induced systemic inflammatory response syndrome. Put plainly: TNFα-induced systemic inflammatory response syndrome in mice. In kind it is in vivo. The following applies: oral gavage 1 mg/kg, 20 minutes before TNFα tail vein injection. An excerpt: A biological test protocol was adopted as follows: systemic inflammatory response syndrome (SIRS), also known as an inflammatory storm, refers to a nonspecific systemic inflammatory response caused by severe infections, multiple trauma, burns, ischemia-reperfusion, acute pancreatitis, and other infectious or non-infectious injuries. Under this condition, a large number of inflammatory factors are released, and in severe cases, the body loses control over the inflammatory response, leading to multiple organ failure and even death. Tail vein injection of tumor necrosis factor TNFα can induce systemic inflammatory response syndrome in mice, causing a drop in body temperature and death of mice. Effects of the representative compound QY-18-26 on TNFα-induced systemic inflammatory response syndrome were tested by monitoring changes in body temperature and death in mice. A known RIPK1 inhibitor Nec-1s was used as a control.
Method: The compound to be tested was dissolved in 0.5% carboxymethyl cellulose at the required concentration one day in advance and sonicated overnight. […] Body temperature changes of mice were monitored using an infrared thermometer after injection. Effects of the compound were calculated using Prism GraphPad statistical software.

The nature of series [5]: Brain penetration (brain/plasma drug concentrations) in mice. Format: in vivo. As to the method: (§1) A biological test protocol was adopted to test brain/plasma drug concentrations of the compound in living mice and rats. To verify the brain penetration properties of the compounds of the present disclosure in vivo, a representative compound QY-18-26 was selected. Single administration via oral gavage (PO, 10 mg/kg) or intravenous injection (IV, 2 mg/kg) was used to test brain/plasma drug concentrations of the compound in mice (n = 3) at different time points. At the same time, single administration via oral gavage (PO, 5 mg/kg) was used to test brain/plasma drug concentrations in rats (n = 3) at different time points.

Series [6] is described as follows: Pharmacokinetic properties in mice. Format: in vivo. How it is done: A biological test protocol was adopted to test drug metabolism of the compound in living mice. To verify the pharmacokinetic properties of the compounds of the present disclosure in vivo, the representative compound QY-18-26 was selected. Single administration via oral gavage (PO, 10 mg/kg) or intravenous injection (IV, 1 mg/kg) was used to test the pharmacokinetic properties of the compound in mice (n = 3).

Series [7] is described as follows: Brain penetration (brain/plasma drug concentrations) in rats. Format: in vivo. As to the method:
as §1

[8] abbreviates: single dose, PO 10 mg/kg or IV 1 mg/kg.

On to `C[C@H](NC(=O)c1nnn(C)c1Cc1ccccc1)c1ccc(C#Cc2ccccn2)cc1` [QY-18-26, (S)-5-benzyl-1-methyl-N-(1-(4-(pyridin-2-ylethynyl)phenyl)ethyl)-1H-1,2,3-triazole-4-formamide], for which the EC50 was less than 0.01 nM in series [1] (stimulation with TNFα + SM164, read-out: EC50 (nM) FADD^-/- Jurkat cells (human-derived) TNFα+ SM164); less than 0.01 nM in series [1] (stimulation with TNFα alone, read-out: EC50 (nM) FADD^-/- Jurkat cells (human-derived) TNFα); less than 0.01 nM in series [3] (stimulation with TNFα + SM164, read-out: EC50 (nM) L929 cells (mouse-derived) TNFα+ SM164); less than 0.01 nM in series [3] (stimulation with TNFα alone, read-out: EC50 (nM) L929 cells (mouse-derived) TNFα). Further, the “programmed necroptosis inhibitory activity compared to SAR443122” value in series [1] (TNFα alone or TNFα + SM164, human derived FADD-deficient Jurkat cells) was “stronger”. In series [2], the IC50 came to 6.4 nM. The “effect on TNFα-induced body temperature drop, inflammatory response, and death” value in series [4] was “effectively counteract”. The brain-plasma distribution entry in series [5] (at 4 hours) and in series [7] (at 4 hours) was “remained stable” in each case. For the same compound, the Kp was roughly 0.4 in series [5] (mouse, brain, single dose PO 10 mg/kg or IV 2 mg/kg, read-out: concentration in the brain as share of the concentration in plasma) and roughly 0.4 in series [7] (rat, brain, single dose PO 5 mg/kg, read-out: concentration in the brain as share of the concentration in plasma). For the same compound, the brain drug concentration in series [5] (single dose PO 10 mg/kg or IV 2 mg/kg) and in series [7] (single dose PO 5 mg/kg) was greater than 5 ng/g in each case. Besides, the plasma concentration in series [6] (oral gavage 10 mg/kg, for most of the 24-hour period) is greater than 5 ng/mL. In addition, the “bioavailability (F)” value in series [6] (setting [8]) was “very high”. Besides, in series [6] (setting [8]), the “exposure (AUC)” value is on record as “very high”. The “maximum plasma concentration (Cmax)” value in series [6] (setting [8]) is reported as “very high”. Moreover, the “time to peak concentration” value in series [6] (setting [8]) is “rapidly reached a peak concentration”.
